Reference: patent US20120028244A1, “Anti-Viral Azide Containing Compounds” (LIFE TECHNOLOGIES CORPORATION, priority 2010, published 2012)

Assays:
HIV = assay: Luciferase reporter assay of infectivity of azide-labeled HIV on TZM/BI reporter cells; format: cell-based, human immunodeficiency virus; conditions: HIVNL4-3 produced in CEMx174 cells spiked with the compound; labeled virus incubated 12 hours on TZM/BI reporter cells; single cycle replication system; FIGS. 3 and 4
Description: CEMx174 cells were transfected with HIVNL4-3 in a T-150 flask and the virus production was monitored by reverse transcriptase activity until peak virus production occurred (usually 7 to 9 days post transfection). Prior to transfection, the CEMx174 cells were spiked with the following azide-modified biomolecules: 15-azidopentadecanoic acid (50-100 μM), 12-azidododecanoic acid (50-100 μM), tetraacetylated N-azidoacetylgalactosamine (20-40 μM), and tetraacetylated N-azidoacetyl-D-mannosamine (20-40 μM).
Labeled virus was also obtained from the transfected cells. More specifically, virus-containing supernatants were collected and virus was purified through 20% sucrose as previously described (Graham, D. R. et al., Proteomics 2008, 8:4919-30). The purified virus was then mixed with the CLICK-IT® detection reagent, tetramethylrhodamine (TAMRA) alkyne and the CLICK-IT® Protein Reaction Buffer Kit (Invitrogen, Carlsbad, Calif.). Virus samples were run on a one-dimensional gel to reveal azide-labeled viral proteins (FIG. 2). […]
To examine the effect of the azide-modified biomolecules on the innate biology of the virus, the azide-labeled virus from the transfected cells was isolated and tested in cell infection studies. […] Viral infectivity was determined by measuring cellular luciferase activities with two different luciferase reagents.

[1] = tested on: Nuclear-GFP BacMam 2.0 virus (baculovirus); assay: Infectivity of PTM analog-labeled Nuclear-GFP BacMam virus in U2-OS cells; format: cell-based; conditions: BacMam virus labeled in Sf9 insect cells with 50 uM analog; U2-OS cells incubated overnight with labeled virus; FIG. 5
Text: Inhibition of insect cell baculovirus infectivity with azido fatty acid analogs: The BacMam system uses a modified insect cell virus (baculovirus) as a vehicle to efficiently deliver and express genes in mammalian cells. A Nuclear-GFP BacMam 2.0 expression system (Invitrogen, C10602) was used as a model to determine if PTM analog labeling of the virus would affect mammalian cell infectivity. Viruses were labeled with various PTM analogs and used to infect mammalian cells. Infectivity was determined by the expression of nuclear-GFP, as viral entry into the cell is required for expression of GFP protein. […]
Characterization of BacMam Virus Production: To verify, quantitate, and normalize the amount of enriched viruses obtained from insect cell supernatants, samples of each virus were lysed in SDS sample preparation buffer (SPB), sonicated with a probe tip sonicator, and heated at 90C to completely dissolve the viral proteins. Viral protein concentrations of the lysates were then determined. […]
Mammalian Cell Infection Protocol: To determine if the PTM analog-labeled viruses retain the ability to infect mammalian cells, 50,000 U2-OS cells (human osteosarcoma cell line) were plated onto a 6 well-chamber glass bottom plate. […] The following day cells were imaged on AMG EVOS fluorescence microscope at 10× or 20× magnification using both white light and GFP filters (FIG. 5). […]

Compound: [N-]=[N+]=NCCCCCCCCCCCC(=O)O [12-azidododecanoic acid]
- impact on the infectivity of the virus (cellular luciferase activity) (HIV): profound impact on the infectivity of the virus
- nuclear-GFP expression in U2-OS cells (viral entry) [1]: no nuclear-GFP expression

Compound: [N-]=[N+]=NCCCCCCCCCCCCCCC(=O)O [15-azidopentadecanoic acid]
- nuclear-GFP expression in U2-OS cells (viral entry) [1]: no nuclear-GFP expression
